In ChEMBL document CHEMBL1148868, “Isoform selective inhibition of STAT1 or STAT3 homo-dimerization via peptidomimetic probes: structural recognition of STAT SH2 domains” (Bioorg Med Chem Lett, 2007):
Active and inactive are the calls of the source. No cut-off for these calls is given here.

Key:
[1] = biological target: Signal transducer and activator of transcription 3 (Homo sapiens, UniProt P40763); test: Inhibition of STAT3 dimer DNA binding activity after 30 mins
[2] = biological target: T1, Signal transducer and activator of transcription 1-alpha/beta (Homo sapiens, UniProt P42224); test: (§1) Inhibition of STAT1 dimer DNA binding activity after 30 mins; format: functional
T1 sequence (P42224 whole entry): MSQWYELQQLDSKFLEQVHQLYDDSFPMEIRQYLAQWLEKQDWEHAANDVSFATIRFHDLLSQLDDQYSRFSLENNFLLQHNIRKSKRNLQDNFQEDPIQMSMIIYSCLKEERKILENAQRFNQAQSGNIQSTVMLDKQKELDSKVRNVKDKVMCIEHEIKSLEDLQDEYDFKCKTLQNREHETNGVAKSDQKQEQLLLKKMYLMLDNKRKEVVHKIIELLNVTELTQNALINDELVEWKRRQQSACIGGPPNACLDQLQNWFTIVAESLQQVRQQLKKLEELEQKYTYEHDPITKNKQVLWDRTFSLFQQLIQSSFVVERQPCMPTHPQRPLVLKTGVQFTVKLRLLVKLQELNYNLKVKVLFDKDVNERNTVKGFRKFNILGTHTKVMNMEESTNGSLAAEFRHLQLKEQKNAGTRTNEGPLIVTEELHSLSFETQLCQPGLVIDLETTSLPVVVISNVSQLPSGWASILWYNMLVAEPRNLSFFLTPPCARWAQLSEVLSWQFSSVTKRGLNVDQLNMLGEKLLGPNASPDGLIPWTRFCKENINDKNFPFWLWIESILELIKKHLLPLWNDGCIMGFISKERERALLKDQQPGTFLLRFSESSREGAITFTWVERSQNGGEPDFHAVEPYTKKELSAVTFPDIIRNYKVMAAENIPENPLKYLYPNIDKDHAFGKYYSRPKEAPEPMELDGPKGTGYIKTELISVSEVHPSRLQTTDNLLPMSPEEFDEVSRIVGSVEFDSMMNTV

[3] = biological target: T2, Signal transducer and activator of transcription 1-alpha/beta (Homo sapiens) (UniProt P42224); test: as §1; format: functional
T2 sequence (whole entry): T1 sequence (P42224 whole entry)

Signal transducer and activator of transcription 3, sequence (P40763 whole entry): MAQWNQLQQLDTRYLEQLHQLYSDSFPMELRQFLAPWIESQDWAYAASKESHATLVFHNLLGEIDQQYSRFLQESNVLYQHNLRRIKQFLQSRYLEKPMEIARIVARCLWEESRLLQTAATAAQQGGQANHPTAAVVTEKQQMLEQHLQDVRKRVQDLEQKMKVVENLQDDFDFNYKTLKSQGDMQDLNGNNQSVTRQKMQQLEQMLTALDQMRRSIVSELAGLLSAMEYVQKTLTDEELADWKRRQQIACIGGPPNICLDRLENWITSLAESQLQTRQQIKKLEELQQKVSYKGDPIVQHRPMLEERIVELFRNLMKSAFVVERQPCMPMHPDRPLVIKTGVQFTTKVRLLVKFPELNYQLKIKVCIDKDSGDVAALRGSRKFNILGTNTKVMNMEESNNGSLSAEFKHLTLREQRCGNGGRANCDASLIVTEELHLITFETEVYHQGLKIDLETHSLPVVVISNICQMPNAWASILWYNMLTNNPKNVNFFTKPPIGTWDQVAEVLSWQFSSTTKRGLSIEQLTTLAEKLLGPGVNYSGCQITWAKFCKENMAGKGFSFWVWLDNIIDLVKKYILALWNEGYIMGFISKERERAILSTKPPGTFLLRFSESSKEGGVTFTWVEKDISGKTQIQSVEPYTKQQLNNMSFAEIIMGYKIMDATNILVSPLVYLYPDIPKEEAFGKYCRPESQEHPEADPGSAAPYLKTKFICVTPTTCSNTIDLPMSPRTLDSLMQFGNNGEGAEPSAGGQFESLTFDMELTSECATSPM

IC50 [1]	IC50 [2]	Activity [1]	Activity [3]	SMILES
74 µM	250 µM			CC(C)CNC(=O)[C@H](CC(C)C)NC(=O)[C@H](Cc1ccc(OP(=O)(O)O)cc1)NC(=O)c1ccc(C#N)cc1 (stereo in doubt; form 2)
		inactive	inactive	CC(C)C[C@H](NC(=O)[C@H](Cc1ccc(OP(=O)(O)O)cc1)NC(=O)c1ccc(C#N)cc1)C(=O)NCc1cccnc1
620 µM	210 µM			CC(C)C[C@H](NC(=O)[C@H](Cc1ccc(OP(=O)(O)O)cc1)NC(=O)c1ccc(C#N)cc1)C(=O)NCCCO
31 µM	560 µM			COc1cccc(NC(=O)[C@H](CC(C)C)NC(=O)[C@H](Cc2ccc(OP(=O)(O)O)cc2)NC(=O)c2ccc(C#N)cc2)c1
123 µM	402 µM			CC(C)C[C@H](NC(=O)[C@H](Cc1ccc(OP(=O)(O)O)cc1)NC(=O)c1ccc(C#N)cc1)C(=O)NCc1ccncc1
58 µM	760 µM			CC(C)CNC(=O)[C@H](CC(C)C)NC(=O)[C@H](Cc1ccc(OP(=O)(O)O)cc1)NC(=O)c1ccc(C#N)cc1 (stereo in doubt; form 1)
800 µM	760 µM			CC(C)C[C@H](NC(=O)[C@H](Cc1ccc(OP(=O)(O)O)cc1)NC(=O)c1ccc(C#N)cc1)C(=O)NCc1ccccc1
310 µM	380 µM			CC(C)C[C@H](NC(=O)[C@H](Cc1ccc(OP(=O)(O)O)cc1)NC(=O)c1ccc(C#N)cc1)C(=O)Nc1ccccc1
		inactive	inactive	Cc1cccc(NC(=O)[C@H](CC(C)C)NC(=O)[C@H](Cc2ccc(OP(=O)(O)O)cc2)NC(=O)c2ccc(C#N)cc2)c1
		inactive	inactive	COC(=O)[C@H](CC(C)C)NC(=O)[C@H](Cc1ccc(OP(=O)(O)O)cc1)NC(=O)c1ccc(C#N)cc1

SMILES	IC50 [1]	IC50 [2]	Activity [1]	Activity [3]
CC(C)C[C@H](NC(=O)[C@H](Cc1ccc(OP(=O)(O)O)cc1)NC(=O)c1ccc(C#N)cc1)C(=O)NC1CCCCC1	58 µM	605 µM		
